The test system of assay [1] is E. coli TISTR 887. Briefly: Agar well diffusion assay. It is filed as cell-based, Escherichia coli. From the text: (§1) To identify potential active bacterial isolates, the cross-streak and agar well diffusion method was employed against S. aureus TISTR 517 and E. coli TISTR 887, following the protocol described in a previous study. The production kinetics of antibacterial substances by the active bacterial isolates were investigated. Single colonies were suspended in 0.9% NaCl solution, and the turbidity was adjusted to an optical density (OD) of 0.35 at 625 nm. Two milliliters of the cell suspension were inoculated into 98 mL of LB broth and incubated at 37 °C with shaking at 150 rpm for seven days. At each time interval, bacterial growth was evaluated by measuring the OD at 625 nm using a UV-Vis spectrophotometer (JASCO Corporation, Tokyo, Japan). The cell-free supernatant (CFS) was obtained by centrifuging the culture at 10,000× g at 4 °C for 15 min. Subsequently, 100 µL of the supernatant was loaded into wells on MH agar plates precultured with tested pathogens. Colistin and vancomycin served as positive controls in agar well diffusion assay.

Assay [2] concerns K. pneumoniae TISTR 1383. The experiment in a line: Agar well diffusion assay. The class given is cell-based, Klebsiella pneumoniae.
Description: as §1
In general terms: In agar diffusion tests the substance spreads into inoculated agar from a disc or well.

Assay [3] concerns MRSA Strain 2468. The experiment in a line: microbe, parasite or virus in culture. It is filed as cell-based, Staphylococcus aureus. The note with it: Staphylococcus aureus, MRSA, 24 h. As to the method: (§2) A bacterial suspension was prepared by adjusting its turbidity at OD 625 nm to 0.1 and subsequently made a 20-fold dilution using Cation-Adjusted Mueller–Hinton broth (CAHMB) as a diluent. […] The diluted cell suspension (10 µL) was added to each well, and the plates were incubated at 37 °C for 24 h. The CAMHB alone was used as a negative control, while CAMHB containing colistin or vancomycin served as a positive control.

In assay [4] the test system is S. aureus TISTR 517. Briefly: microbe, parasite or virus in culture. It is filed as cell-based, Staphylococcus aureus. The note with it: Staphylococcus aureus, TISTR517, 24 h, read-out: MBC, S. aureus TISTR 517. As to the method: as §2
The subject of assay [5] is P. aeruginosa TISTR 357. Briefly: Agar well diffusion assay. It is filed as cell-based, Pseudomonas aeruginosa.
Description: as §1

Assay [6] deals with MRSA Strain 2468. Briefly: Agar well diffusion assay. It is filed as cell-based, Staphylococcus aureus.
Description: as §1

Assay [7] deals with S. aureus TISTR 517. Briefly: Agar well diffusion assay. It is filed as cell-based, Staphylococcus aureus.
Description: as §1

A further assay has as its system E. coli. The arrangement: method as in PMID 36912655. To be noted: cited from earlier work.
Assay [8] concerns E. coli TISTR 887. The class given is cell-based, Escherichia coli. To be noted: broth microdilution, 37 °C, 24 h, triplicate. As to the method: as §2
On the technique in general: Dilution methods test growth across graded concentrations, often in twofold steps.

For assay [9], the system named is K. pneumoniae TISTR 1383. It is filed as cell-based, Klebsiella pneumoniae. The note with it: broth microdilution, 37 °C, 24 h, triplicate. As to the method: as §2
The test system of assay [10] is P. aeruginosa TISTR 357. It is filed as cell-based, Pseudomonas aeruginosa. To be noted: broth microdilution, 37 °C, 24 h, triplicate. On the procedure:
as §2

Where [11] appears, read: agar well diffusion, MH agar, CFS obtained at 24 h of cultivation, 100 µL per well, colistin 25 μg, vancomycin 30 μg, mean ± SD, n = 3.

Converted amounts (≈) assume the structure as drawn.

By zone of inhibition is commonly meant the extent of the growth-free halo in a diffusion test. Turning to `CN[C@H](CC(C)C)C(=O)N[C@H]1C(=O)N[C@@H](CC(N)=O)C(=O)N[C@H]2C(=O)N[C@H]3C(=O)N[C@H](C(=O)N[C@H](C(=O)O)c4cc(O)cc(O)c4-c4cc3ccc4O)[C@H](O)c3ccc(c(Cl)c3)Oc3cc2cc(c3O[C@@H]2O[C@H](CO)[C@@H](O)[C@H](O)[C@H]2O[C@H]2C[C@](C)(N)[C@H](O)[C@H](C)O2)Oc2ccc(cc2Cl)[C@H]1O` [Vancomycin], the zone of inhibition at 30 µg/disc was 0 mm in the assay with E. coli TISTR 887 [1] (Escherichia coli, TISTR887, 24 h, read-out: Zone of Inhibition, E. coli TISTR 887); 0 mm in the assay with K. pneumoniae TISTR 1383 [2] (Klebsiella pneumoniae, TISTR1383, 24 h, read-out: Zone of Inhibition, K. pneumoniae TISTR 1383); 0 mm with P. aeruginosa TISTR 357 [5] (Pseudomonas aeruginosa, TISTR357, 24 h, read-out: Zone of Inhibition, P. aeruginosa TISTR 357); 29 ± 0.43 mm in the assay on MRSA Strain 2468 [6] (Staphylococcus aureus, MRSA, 24 h, read-out: Zone of Inhibition, MRSA Strain 2468); 28.5 ± 0.22 mm in the assay on S. aureus TISTR 517 [7] (Staphylococcus aureus, TISTR517, 24 h, read-out: Zone of Inhibition, S. aureus TISTR 517). Moreover, the MBC in the assay with MRSA Strain 2468 [3] (read-out: MBC, MRSA strain 2468) was 4 µg/mL (≈ 2.76 µM); in the assay on S. aureus TISTR 517 [4], 2 µg/mL (≈ 1.38 µM). Besides, the MIC with MRSA Strain 2468 [3] (read-out: MIC, MRSA strain 2468) worked out at 4 µg/mL (≈ 2.76 µM).

As for brevicidine, in the assay with E. coli (0.5× to 2× MIC), the “viability of E. coli at lower concentrations” value is recorded as “remained viable”. Also, in the assay with E. coli (peptide at 4× MIC), the “time to eradication of E. coli” value is 1 h.

Colistin [reference compound]: in the assay with E. coli TISTR 887 [1] (setting [11]), the “Zone of Inhibition, E. coli TISTR 887” value came out at 26.52 ± 0.43 mm. Moreover, in the assay on E. coli TISTR 887 [8] (CAMHB), the “MIC, E. coli TISTR 887” value is recorded as 1 µg/mL. The “MBC, E. coli TISTR 887” value in the assay with E. coli TISTR 887 [8] (then plated on MH agar) amounted to 1 µg/mL. Also, in the assay with K. pneumoniae TISTR 1383 [9] (CAMHB), the “MIC, K. pneumoniae TISTR 1383” value was 1 µg/mL. Also, the “MBC, K. pneumoniae TISTR 1383” value against K. pneumoniae TISTR 1383 [9] (then plated on MH agar) is on record as 1 µg/mL. Also, the “Zone of Inhibition, K. pneumoniae TISTR 1383” value in the assay on K. pneumoniae TISTR 1383 [2] (setting [11]) is reported as 26.67 ± 0.22 mm. Also, the “Zone of Inhibition, P. aeruginosa TISTR 357” value with P. aeruginosa TISTR 357 [5] (setting [11]) amounted to 29.41 ± 0.65 mm. Moreover, the “MIC, P. aeruginosa TISTR 357” value with P. aeruginosa TISTR 357 [10] (CAMHB) is on record as 2 µg/mL. In the assay on P. aeruginosa TISTR 357 [10] (then plated on MH agar), the “MBC, P. aeruginosa TISTR 357” value was determined as 2 µg/mL. For the same compound, in the assay on MRSA Strain 2468 [6] (setting [11]), the “Zone of Inhibition, MRSA Strain 2468” value was 0.00 ± 0.00 mm. Moreover, in the assay on S. aureus TISTR 517 [7] (setting [11]), the “Zone of Inhibition, S. aureus TISTR 517” value was 0.00 ± 0.00 mm.

These data come from article PMC12383022, “Discovery of a Novel Antimicrobial Peptide from Paenibacillus sp. Na14 with Potent Activity Against Gram-Negative Bacteria and Genomic Insights into Its Biosynthetic Pathway” (Antibiotics, 2025).
